# Results taken from patent publication US8691820B2, “CDK inhibitors” (Curis, Inc., priority 2008, dated 2014).
# Target: T1, CDK2/cyclinA (Homo sapiens, UniProt P24941)
# T1 construct: C-terminal 6His-tagged human full length cdk2 (MW=35 kDa); 6His (C); made in house; host or cells: Sf21 insect cells (baculovirus)
# Experiment: CDK2 kinase assay (33P-ATP, Histone H1 substrate)
# Format: biochemical
# Conditions: 1 μM ATP, 5 μM Histon H1, 2 hours at room temperature
# Text: CDK2/cyclinA (Accession number for CDK2; EMBL M68520, for cyclin A; EMBL X51688): C-terminal 6His-tagged human full length cdk2 (MW=35 kDa), and N-terminal GST-tagged human full length cyclin A (MW=75 kDa) were expressed individually with baculovirus system in Sf21 insect cells. Recombinant cdk2 protein was purified with Ni2+/NTA agarose and then activated using CAK and repurified by Q Sepharose and Ni2+/NTA agarose. Recombinant cyclin A was purified using glutathione-agarose. They were then mixed in vitro to form protein complex. Recombinant protein complex was measured to be 67% in purity with SDS-PAGE and Coomassie blue staining. Specific activity of purified enzyme was measured to be 158 U/mg, where one unit of cdk2/cyclinA activity is defined as 1 nmol phosphate incorporated into 0.1 mg/ml histone H1 per minute at 30° C. with a final ATP concentration of […]. Enzyme was stored at a concentration of 0.1 mg/ml in 50 mM Tris/HCl pH7.5, 150 mM NaCl, 0.1 mM EGTA, 0.03% Brij-35, 270 mM sucrose, 1 mM benzamidine, 0.2 mM PMSF, 0.1% 2-mercaptoethanol. Frozen solution.
# Histon H1 (Substrate for CDK2): Histone H1 (Sigma cat#H4524), was purified as a lysine rich fraction from calf thymus with 93% purity (MW=21.5 kDa). Purified protein was stored at a concentration of 20 mg/ml=930 μM in distilled water.
# […] (0.5 nmol) and 5 μM Histon H1 were mixed in the reaction buffer (20 mM HEPES (pH 7.5), 10 mM MgCl2, 1 mM EGTA, 0.02% Brij 35, 0.02 mg/ml BSA, 0.1 mM Na3VO4, 2 mM DTT) with final concentration of 1 μM ATP and 1% DMSO. The reaction was incubated for 2 hours at room temperature and conversion rate of ATP is about 4.5%. An equal volume of 25% TCA was added to stop the reaction and precipitate the labeled peptides. Precipitated proteins were trapped onto glass fiber B filterplates and excess […] p33 ATP was washed off. The plates were allowed to air-dry prior to the addition of 30 uL/well of Packard Microscint 20. The amount of incorporated isotope was measured using a Perkin Elmer TopCount plate reader. Different concentrations of compounds were added to reaction to assess the activity of compounds to inhibit […]. IC50 was calculated using Prism software with sigmoidal dose-response curve fitting.
# The following TABLE B lists compounds representative of the invention and their activity in the CDK2 assay. In this assay, the following grading was used: I≧10 μM, 10 μM>II>1 μM, 1 μM>III>0.1 μM, and IV≦0.1 μM for IC50.
row,SMILES,IC50 [nM]
1,"CN(O)C(=O)/C=C/c1ccc(C(=O)Nc2ncc(SCc3ncc(C(C)(C)C)o3)s2)cc1 [Compound 39, (E)-N-(5-((5-tert-butyloxazol-2-yl)methylthio)thiazol-2-yl)-4-(3-(hydroxy(methyl)amino)-3-oxoprop-1-enyl)benzamide]",1000 to 10000
2,"CC(C)(C)c1cnc(CSc2cnc(NC(=O)CCCCCCC(=O)Nc3cn[nH]c3)s2)o1 [Compound 42, N^1-(5-((5-tert-butyloxazol-2-yl)methylthio)thiazol-2-yl)-N^8-(1H-pyrazol-4-yl)octanediamide]",≤ 100
3,"CC(C)(C)c1cnc(CSc2cnc(NC(=O)CC3Nc4ccccc4NC3=O)s2)o1 (stereo not shown) [Compound 46, N-(5-((5-tert-butyloxazol-2-yl)methylthio)thiazol-2-yl)-2-(3-oxo-1,2,3,4-tetrahydroquinoxalin-2-yl)acetamide]",≤ 100
4,"CC(C)(C)c1cnc(CSc2cnc(NC(=O)Oc3ccc(OCCCC(=O)Nc4ccccc4N)cc3)s2)o1 [Compound 54, 4-(4-(2-Aminophenylamino)-4-oxobutoxy)phenyl 5-((5-tert-butyloxazol-2-yl)methylthio)thiazol-2-ylcarbamate]",≤ 100
5,"CC(C(=O)Nc1ncc(SCc2ncc(C(C)(C)C)o2)s1)c1ccc(OCCCC(=O)Nc2ccccc2N)cc1 (stereo not shown) [Compound 57, N-(2-aminophenyl)-4-(4-(1-(5-((5-tert-butyloxazol-2-yl)methylthio)thiazol-2-ylamino)-1-oxopropan-2-yl)phenoxy)butanamide]",≤ 100
6,"CC(Sc1cnc(NC(=O)Cc2ccc(OCCCC(=O)Nc3ccccc3N)cc2)s1)c1ncc(C(C)(C)C)o1 (stereo not shown) [Compound 58, N-(2-aminophenyl)-4-(4-(2-(5-(1-(5-tert-butyloxazol-2-yl)ethylthio)thiazol-2-ylamino)-2-oxoethyl)phenoxy)butanamide]",≤ 100

# Results, then the compound that gave them:
row,IC50 [nM],SMILES
1,≤ 100,"CC(C)(C)c1cnc(CSc2cnc(NC(=O)CCCCCCC(=O)n3nnc4ccccc43)s2)o1 [Compound 40, 8-(1H-benzo[d][1,2,3]triazol-1-yl)-N-(5-((5-tert-butyloxazol-2-yl)methylthio)thiazol-2-yl)-8-oxooctanamide]"
2,≤ 100,CC(C)(C)c1cnc(CSc2cnc(NC(=O)CCCCCCC(=O)Nc3n[nH]c4ccccc34)s2)o1 [Compound 41]
3,≤ 100,"CC(C)(C)c1cnc(CSc2cnc(NC(=O)CCCCCCC(=O)n3ncc(-c4ccc(F)cc4)c3N)s2)o1 [Compound 44, 8-(5-amino-4-(4-fluorophenyl)-1H-pyrazol-1-yl)-N-(5-((5-tert-butyloxazol-2-yl)methylthio)thiazol-2-yl)-8-oxooctanamide]"
4,≤ 100,CC(C)(C)c1cnc(CSc2cnc(NC(=O)CCCCCCC(=O)Nc3[nH]ncc3-c3ccc(F)cc3)s2)o1 [Compound 45]
5,≤ 100,CC(C)(C)c1cnc(CSc2cnc(NC(=O)CCCCCCC(=O)Nc3nc4ccccc4[nH]3)s2)o1 [Compound 47]
6,≤ 100,CC(C)(C)c1cnc(CSc2cnc(NC(=O)CCCCCCC(=O)n3nc(N)c4ccccc43)s2)o1 [Compound 48]
7,≤ 100,CC(C)(C)c1cnc(CSc2cnc(NC(=O)CCCCCCC(=O)Nc3c[nH]c4ccccc34)s2)o1 [Compound 50]
8,≤ 100,"CN1OC(=O)CC1c1ccc(C(=O)Nc2ncc(SCc3ncc(C(C)(C)C)o3)s2)cc1 (stereo not shown) [Compound 51, N-(5-((5-tert-butyloxazol-2-yl)methylthio)thiazol-2-yl)-4-(2-methyl-5-oxoisoxazolidin-3-yl)benzamide]"
9,≤ 100,CC(C)(C)c1cnc(CSc2cnc(NC(=O)CCCCCCC(=O)Nc3cc(-c4cccs4)n[nH]3)s2)o1 [Compound 52]
10,≤ 100,"CC(C)(C)c1cnc(CSc2cnc(NC(=O)Cc3cccc(OCCCC(=O)Nc4ccccc4N)c3)s2)o1 [Compound 56, N-(2-aminophenyl)-4-(3-(2-(5-((5-tert-butyloxazol-2-yl)methylthio)thiazol-2-ylamino)-2-oxoethyl)phenoxy)butanamide]"
